Consider two substances from patent US4861760A, “Ophthalmological composition of the type which undergoes liquid-gel phase transition” (Merck & Co., Inc., priority 1985, dated 1989).

Series [1] in a line: compatibility / gelling effect of ingredients in Gelrite solution. The format is physicochemical. The conditions noted are these: 0.1 mg/ml added; can be eliminated by adding a small amount of acetic acid.
In series [2] the test system is eye. The settings on record: rabbit, in vivo.

Consider benzalkonium chloride, for which the “gelling effect in a Gelrite solution” value in series [1] was “slight gelling effect”.
As to gellan gum, the eye irritation entry in series [2] is reported as “not regarded as an eye irritant”.
